This passage reports IC50 results from patent US5585492A, “LTA4 Hydrolase inhibitors” (priority 1994, dated 1996).

The subject of the assay is LTB4 production in human blood. Briefly: Inhibition of Calcium Ionophore-Induced LTB4 Production in Human Blood (HWB). The class given is cell-based. To be noted: human whole blood, A23187 20 mcg/ml, read-out: Inhibition of Calcium Ionophore-Induced LTB4 Production in Human Blood IC50 HWB. Here is the method: One or more concentrations of the leukotriene A4 hydrolass inhibitor compounds being tested were prepared (diluted in DMSO) and 2 μl added and gently mixed with the diluted whole blood. After incubating for 15 minutes at 37° C. in a humidified incubator, calcium ionophore A23187 (Sigma Chemical Co., St. Louis, Mo.) was added to a final concentration of 20 mcg/ml and the incubation continued under the same conditions for an additional 10 minutes to allow LTB4 formation. The reaction was terminated by centrifugation (833 g, 10 minutes at 4° C.) and supernatant were analyzed for LTB4 and thromboxane by commercially available enzyme-linked immunoassays (Caymen Chemical Co., Ann Arbor, Mich.) according to the manufacturer's instructions. The IC50 of each test compound was determined from the amount of inhibition of LTB4 production as compared to an essentially identical assay in which no inhibitor compound was present.

pIC50: −log10 of the molar value. Like-named read-outs stand apart in the source and are kept apart here.

`C[C@@H]1C[C@H](C(N)=O)CCN1CCOc1ccc(Cc2ccccc2)cc1` (relative stereo) [Example 297]: the pIC50 (Homo sapiens) is 6.44.
Turning to `CCOC(=O)[C@@H]1CCN(CCOc2ccc(Cc3ccccc3)cc2)[C@H](C)C1` (relative stereo) [Example 298], the pIC50 (Homo sapiens) was 6.12.
Turning to `C[C@H]1C[C@@H](O)CCN1CCOc1ccc(Cc2ccccc2)cc1` (relative stereo) [Example 465], the pIC50 (Homo sapiens) is 6.33.
Same read-out and setting: for `CC(=O)N[C@@H]1CCN(CCOc2ccc(Cc3ccccc3)cc2)[C@@H](C)C1` (relative stereo) [Example 467] the value was 6.65.
Still for that read-out and setting: for `Fc1ccc(Oc2ccc(OCCN3CCCC3)cc2)cc1` [Example 48] the value was 6.41.
Take `c1ccc(Oc2ccc(OCCN3CCCC3)nc2)cc1` [Example 65]: the pIC50 (Homo sapiens) was 6.29.
Still for that read-out and setting: for `[O-][S+](CCN1CCCC1)c1ccc(Cc2ccccc2)cc1` (stereo not drawn) [Example 69] the value was 4.93; for `c1ccc(Oc2ccc(NCCN3CCCC3)cc2)cc1` [Example 71], 5.37; for `Clc1cc(OCCN2CCCC2)ccc1Cc1ccccc1` [Example 114], 4.80.
Still for that read-out and setting: to `Cc1cc(Cc2ccccc2)ccc1OCCN1CCCC1` [Example 117] belongs 5.38; to `c1cc(OCCN2CCCC2)ccc1Cc1ccc2c(c1)OCO2` [Example 130], 6.00; to `c1ccc2nc(Cc3ccc(OCCN4CCCC4)cc3)ccc2c1` [Example 131], 4.60.
On the same count and under the same terms, for `c1ccc2ncc(Cc3ccc(OCCN4CCCC4)cc3)cc2c1` [Example 132] the value was 6.30.
In the case of `c1csc(Cc2ccc(OCCN3CCCC3)cc2)c1` [Example 133], for the setting “Homo sapiens”, the pIC50 is 7.37.
Same read-out and setting: for `Oc1ccc(Cc2ccc(OCCN3CCCC3)cc2)cc1` [Example 137] the value was 7.10; for `c1ccc(Cc2ccc(OCCN3CCCC3)cc2)nc1` [Example 138], 6.28.
As to `Fc1ccc(Cc2ccc(OCCN3CCCC3)cc2)cc1` [Example 139], the pIC50 (Homo sapiens) is 6.24.
On the same count and under the same terms, for `Fc1ccccc1Cc1ccc(OCCN2CCCC2)cc1` [Example 141] the value was 6.55; for `Fc1cccc(Cc2ccc(OCCN3CCCC3)cc2)c1` [Example 142], 7.00; for `Clc1cccc(Cc2ccc(OCCN3CCCC3)cc2)c1` [Example 143], 6.54.
With `COc1ccc(Cc2ccc(OCCN3CCCC3)cc2)cc1F` [Example 144], where the note is “Homo sapiens”, the negative-log IC50 (pIC50) was 6.05.
The same measure, in the same setting: for `NC(=O)C1CCN(CCOc2ccc(Cc3ccccc3)cn2)CC1` [Example 147] the value was 6.14; for `c1ccc2cc(COc3ccc(OCCN4CCCC4)cc3)ccc2c1` [Example 200], 5.72.
Regarding `c1ccc2ncc(COc3ccc(OCCN4CCCC4)cc3)cc2c1` [Example 201], where the note is “Homo sapiens”, the pIC50 is 5.76.
Same read-out and setting: for `Brc1ccc(COc2ccc(OCCN3CCCC3)cc2)cc1` [Example 203] the value was 5.48.
On the same count and under the same terms, for `Fc1ccc(COc2ccc(OCCN3CCCC3)cc2)cc1` [Example 205] the value was 5.94.
Turning to `Fc1ccccc1COc1ccc(OCCN2CCCC2)cc1` [Example 207], the negative-log IC50 (pIC50) (Homo sapiens) was 6.19.
In the case of `Clc1ccccc1COc1ccc(OCCN2CCCC2)cc1` [Example 208], the pIC50 (Homo sapiens) is 5.67.
Still for that read-out and setting: for `FC(F)(F)c1cccc(COc2ccc(OCCN3CCCC3)cc2)c1` [Example 209] the value was 5.63; for `Fc1cccc(COc2ccc(OCCN3CCCC3)cc2)c1` [Example 211], 6.21; for `Cc1ccc(COc2ccc(OCCN3CCCC3)cc2)cc1` [Example 212], 5.48.
For the compound `COc1ccc(COc2ccc(OCCN3CCCC3)cc2)cc1` [Example 213], the pIC50 (Homo sapiens) is 5.33.
Same read-out and setting: to `c1ccc2c(COc3ccc(OCCN4CCCC4)cc3)cccc2c1` [Example 214] belongs 5.00; to `c1csc(COc2ccc(OCCN3CCCC3)cc2)c1` [Example 215], 6.72.
For the compound `NC(=O)C1CCN(CCOc2ccc(Cc3cccs3)cc2)CC1` [Example 229], where the note is “Homo sapiens”, the pIC50 was 6.66.
The same measure, in the same setting: for `NC(=O)C1CCN(CCOc2ccc(Cc3ccsc3)cc2)CC1` [Example 230] the value was 6.55; for `COc1ccc(Cc2ccc(OCCN3CCC(C(N)=O)CC3)cc2)cc1` [Example 232], 5.00.
As to `NC(=O)C1CCN(CCOc2ccc(Cc3cccc(F)c3)cc2)CC1` [Example 233], the pIC50 (Homo sapiens) was 6.31.
Same read-out and setting: to `c1ccc(Cc2ccc(OCCNC3CCCCC3)cc2)cc1` [Example 240] belongs 5.61.
On to `c1ccc(Cc2ccc(OCCNC3CCCC3)cc2)cc1` [Example 241], for which the pIC50 (Homo sapiens) was 6.20.
Still for that read-out and setting: to `NC(=O)C1CCCN(CCOc2ccc(Cc3ccccc3)cc2)C1` (stereo not drawn) [Example 243] belongs 6.19; to `OC1CCN(CCOc2ccc(Cc3ccccc3)cc2)CC1` [Example 247], 6.70.
Same read-out and setting: for `CCOC(=O)CCNC(=O)C1CCN(CCOc2ccc(Cc3ccccc3)cc2)CC1` [Example 249] the value was 6.37.
The same measure, in the same setting: to `NC(=O)C1CCN(CCOc2ccc(Oc3ccccc3)cc2)CC1` [Example 252] belongs 6.90.
Consider `NC(=O)C1CCCN(CCOc2ccc(Oc3ccccc3)cc2)C1` (stereo not drawn) [Example 253], for which, where the note is “Homo sapiens”, the pIC50 is 6.31.
For `CCOC(=O)C1CCN(CCOc2ccc(Oc3ccccc3)cc2)CC1` [Example 254], for the setting “Homo sapiens”, the pIC50 was 5.90.
As to `CNC(=O)C1CCN(CCOc2ccc(Oc3ccccc3)cc2)CC1` [Example 255], for the setting “Homo sapiens”, the pIC50 is 6.22.
As for `CC(=O)NC1CCN(CCOc2ccc(Cc3ccccc3)cc2)C1` (stereo not drawn) [Example 256], the pIC50 is 6.38.
As for `O=C(OCc1ccccc1)C1CCCN1CCCOc1ccc(Cc2ccccc2)cc1` (stereo not drawn) [Example 258], the pIC50 (Homo sapiens) is 5.84.
The same measure, in the same setting: for `c1ccc(Cc2ccc(OCCCN3CCCC3)cc2)cc1` [Example 259] the value was 6.36; for `COC(=O)C1CN(CCCOc2ccc(Cc3ccccc3)cc2)CCC1=O` (stereo not drawn) [Example 262], 5.61.
As to `CC(C)(C)OC(=O)C1CCN(CCCOc2ccc(Cc3ccccc3)cc2)CC1` [Example 263], for the setting “Homo sapiens”, the pIC50 is 5.06.
Same read-out and setting: for `CCOC(=O)CCNCCCOc1ccc(Cc2ccccc2)cc1` [Example 265] the value was 6.35; for `O=C(CCNCCOc1ccc(Cc2ccccc2)cc1)OCc1ccccc1` [Example 266], 5.58.
The same measure, in the same setting: for `COC(=O)CCNCCCOc1ccc(Cc2ccccc2)cc1` [Example 267] the value was 6.24.
Still for that read-out and setting: for `CCOC(=O)C1CCCN(CCCOc2ccc(Cc3ccccc3)cc2)C1` (stereo not drawn) [Example 269] the value was 5.93.
Consider `O=C(CCNCCCCOc1ccc(Cc2ccccc2)cc1)OCc1ccccc1` [Example 273], for which the pIC50 (Homo sapiens) was 6.81.
In the case of `CCOC(=O)CCNCCCCCOc1ccc(Cc2ccccc2)cc1` [Example 274], the pIC50 (Homo sapiens) is 5.90.
As to `c1ccc(Cc2ccc3c(c2)CC(CN2CCCC2)O3)cc1` (stereo not drawn) [Example 280], the pIC50 (Homo sapiens) was 7.68.
On the same count and under the same terms, to `NC(=O)C1CCN(CC2Cc3cc(Cc4ccccc4)ccc3O2)CC1` (stereo not drawn) [Example 281] belongs 6.78; to `CCOC(=O)C1CCN(CC2Cc3cc(Cc4ccccc4)ccc3O2)CC1` (stereo not drawn) [Example 282], 5.86.
For `c1ccc(Cc2cnc3c(c2)CC(CN2CCCC2)O3)cc1` (stereo not drawn) [Example 287], the pIC50 (Homo sapiens) is 5.62.
Still for that read-out and setting: for `NC(=O)C1CCN(CC2Cc3cc(Cc4ccccc4)cnc3O2)CC1` (stereo not drawn) [Example 288] the value was 6.02.
Same read-out and setting: for `c1ccc(Oc2ccc3c(c2)CC(CN2CCCC2)O3)cc1` (stereo not drawn) [Example 289] the value was 6.50; for `NC(=O)C1CCN(CC2Cc3cc(Oc4ccccc4)ccc3O2)CC1` (stereo not drawn) [Example 290], 6.28.
On the same count and under the same terms, to `CCOC(=O)C1CCN(CC2Cc3cc(Oc4ccccc4)ccc3O2)CC1` (stereo not drawn) [Example 291] belongs 5.73; to `c1ccc(Cc2ccc3c(c2)CCC(CN2CCCC2)O3)cc1` (stereo not drawn) [Example 292], 7.28.
Turning to `NC(=O)C1CCN(CC2CCc3cc(Cc4ccccc4)ccc3O2)CC1` (stereo not drawn) [Example 293], for the setting “Homo sapiens”, the pIC50 is 5.49.
On to `CC(=O)N1CCN(CC2Cc3cc(Cc4ccccc4)ccc3O2)CC1` (stereo not drawn) [Example 294], for which the pIC50 (Homo sapiens) was 6.47.
Turning to `CNC(=O)C1CCN(CC2Cc3cc(Cc4ccccc4)ccc3O2)CC1` (stereo not drawn) [Example 295], the pIC50 (Homo sapiens) was 6.22.
Take `CNC(=O)C1CCN(CC2Cc3cc(Oc4ccccc4)ccc3O2)CC1` (stereo not drawn) [Example 296]: the negative logarithm of the IC50 (pIC50) (Homo sapiens) is 6.29.
On the same count and under the same terms, for `CCOC(=O)CC1CCN(CCOc2ccc(Oc3ccccc3)cc2)CC1` [Example 300] the value was 5.60.
On the same count and under the same terms, to `CCOC(=O)CC1CCN(CCOc2ccc(Cc3ccccc3)cc2)CC1` [Example 301] belongs 6.08; to `CCOC(=O)CC1CCN(CCCOc2ccc(Cc3ccccc3)cc2)CC1` [Example 302], 5.62.
On the same count and under the same terms, for `COC(=O)C1(O)CCN(CCOc2ccc(Cc3ccccc3)cc2)CC1` [Example 305] the value was 5.91.
Consider `CCOC(=O)C1CCN(CCOc2ccc(Cc3cccc(F)c3)cc2)CC1` [Example 309], for which the negative-log IC50 (pIC50) (Homo sapiens) was 5.75.
The same measure, in the same setting: for `CCOC(=O)C1CCN(CCOc2ccc(Cc3cccs3)cc2)CC1` [Example 310] the value was 5.87.
Same read-out and setting: for `CC(=O)N[C@H]1C[C@@H](C)N(CCOc2ccc(Cc3ccccc3)cc2)[C@@H](C)C1` [Example 315] the value was 6.19.
For `C[C@@H]1C[C@H](C(N)=O)C[C@H](C)N1CCOc1ccc(Cc2ccccc2)cc1` [Example 316], where the note is “Homo sapiens”, the negative logarithm of the IC50 (pIC50) is 6.88.
Still for that read-out and setting: to `CCOC(=O)C1C2CN(CCOc3ccc(Cc4ccccc4)cc3)CC21` (stereo not drawn) [Example 325] belongs 5.62; to `NC(=O)N1CCN(CC2Cc3cc(Cc4ccccc4)ccc3O2)CC1` (stereo not drawn) [Example 337], 6.20.
